US11072588B2, “Barbituric acid derivatives comprising cationic and lipophilic groups” (UNIVERSITETET I TROMSØ—NORGES ARKTISKE UNIVERSITET, priority 2017, dated 2021)
In brackets after ≈: the same amount, converted by molar mass.

System: not listed separately
Experiment: Determination of haemolytic activity
Assay type: cell-based
Details: human red blood cells (washed, from heparinized fresh blood); human RBCs, 1 h, 37° C.; read-out: RBC: haemolytic activity against human RBCs (EC50)
Procedure: (§1) Hemolysis was determined using a heparinized fraction (1000 IU/mL) of freshly drawn blood. Blood collected in EDTA containing test tubes (Vacutest®, KIMA, Arzergrande, Italy) was used for determination of the hematocrit (hct). The heparinized blood was washed 3× with pre-warmed PBS and adjusted to a final hct of 4%. Derivatives in DMSO (50 mM) were added to a 96-well polypropylene V-bottom plate (NUNC, Fisher Scientific, Oslo, Norway) and serially diluted. The test concentration range was 500-4 μM with DMSO contents ≤1%. A solution of 1% triton X-100 was used as positive control for 100% hemolysis. As negative control a solution of 1% DMSO in PBS buffer was included. No signs of DMSO toxicity were detected. RBCs (1% v/v final concentration) were added to the well plate and incubated at 37° C. and 800 rpm for 1 h. After centrifugation (5 min, 3000 g), 100 μL of each well were transferred to a 96-well flat bottom plate and absorbance was measured at 545 nm with a microplate reader (VersaMax™, Molecular Devices, Sunnyvale, Calif., USA). The percentage of hemolysis was calculated as the ratio of the absorbance in the derivative-treated and surfactant treated samples, corrected for the PBS background. Three independent experiments were performed and EC50 values are presented as averages.

`NCCCCN1C(=O)N(CCCCN)C(=O)C(Cc2cc(Br)cc(Br)c2)(Cc2cc(Br)cc(Br)c2)C1=O` [7(ii)] and `N=C(N)NCCCCN1C(=O)N(CCCCNC(=N)N)C(=O)C(Cc2cc(Br)cc(Br)c2)(Cc2cc(Br)cc(Br)c2)C1=O` [8(ii), 1,1′-(4,4′-(5,5-bis(3,5-dibromobenzyl)-2,4,6-trioxodihydropyrimidine-1,3(2H,4H)-diyl)bis(butane-4,1-diyl))diguanidine] are within 1.5-fold of each other in EC50 at 1 h: 83 µg/mL (≈ 108 µM) for the first, 56 µg/mL (≈ 65.9 µM) for the second.

`CC(C)(C)c1cc(CC2(Cc3cc(C(C)(C)C)cc(C(C)(C)C)c3)C(=O)N(CCCCN)C(=O)N(CCCCN)C2=O)cc(C(C)(C)C)c1` [7(iii), 1,3-bis(4-aminobutyl)-5,5-bis(3,5-di-tert-butylbenzyl)-pyrimidin-2,4,6(1H,3H,5H)-trione] and `CC(C)(C)c1cc(CC2(Cc3cc(C(C)(C)C)cc(C(C)(C)C)c3)C(=O)N(CCCCNC(=N)N)C(=O)N(CCCCNC(=N)N)C2=O)cc(C(C)(C)C)c1` [8(iii), 1,1′-(4,4′-(5,5-bis(3,5-di-tert-butylbenzyl)-2,4,6-trioxodihydropyrimidine-1,3(2H,4H)-diyl)bis(butane-4,1-diyl))-diguanidine] cannot be ordered by EC50 at 1 h: less than 4 µg/mL for the first, less than 4 µg/mL for the second.

Compared with `NCCCCN1C(=O)N(CCCCN)C(=O)C(Cc2ccc3ccccc3c2)(Cc2ccc3ccccc3c2)C1=O` [7(iv), 1,3-bis(4-aminobutyl)-5,5-bis(naphtalen-2-yl-methyl)-pyrimidin-2,4,6(1H,3H,5H)-trione], `N=C(N)NCCCCN1C(=O)N(CCCCNC(=N)N)C(=O)C(Cc2ccc3ccccc3c2)(Cc2ccc3ccccc3c2)C1=O` [8(iv), 1,1′-(4,4′-(5,5-bis(naphthalen-2-ylmethyl)-2,4,6-trioxodihydropyrimidine-1,3(2H,4H)-diyl)bis(butane-4,1-diyl))-diguanidine] is 1.8-fold lower in EC50 at 1 h: 243 µg/mL (≈ 441 µM) for the first, 133 µg/mL (≈ 210 µM) for the second.

Going from `NCCCCN1C(=O)N(CCCCN)C(=O)C(Cc2ccc(F)c3ccccc23)(Cc2ccc(F)c3ccccc23)C1=O` [7(v), 1,3-bis(4-aminobutyl)-5,5-bis((4-fluoronaphtalen-1-yl)methyl)pyrimidin-2,4,6(1H,3H,5H)-trione] to `N=C(N)NCCCCN1C(=O)N(CCCCNC(=N)N)C(=O)C(Cc2ccc(F)c3ccccc23)(Cc2ccc(F)c3ccccc23)C1=O` [8(v), 1,1′-(4,4′-(5,5-bis((4-fluoronaphthalen-1-yl)methyl)-2,4,6-trioxodihydropyrimidine-1,3(2H,4H)-diyl)bis(butane-4,1-diyl))diguanidine], the EC50 at 1 h falls from 160 µg/mL (≈ 273 µM) to 88 µg/mL (≈ 131 µM) (1.8-fold).

`NCCCCN1C(=O)N(CCCCN)C(=O)C(Cc2cc(C(F)(F)F)cc(C(F)(F)F)c2)(Cc2cc(C(F)(F)F)cc(C(F)(F)F)c2)C1=O` [7(vi)] and `CC(C)(C)c1ccc(CC2(Cc3ccc(C(C)(C)C)cc3)C(=O)N(CCCCN)C(=O)N(CCCCN)C2=O)cc1` [Compound 7(i), 1,3-bis(4-aminobutyl)-5,5-bis(4-tertbutylbenzyl) pyrimidin-2,4,6(1H,3H,5H)-trione] are within 1.5-fold of each other in EC50 at 1 h: 183 µg/mL (≈ 253 µM) for the first, 143 µg/mL (≈ 254 µM) for the second.

With `CC(C)(C)c1ccc(CC2(Cc3ccc(C(C)(C)C)cc3)C(=O)N(CCCCNC(=N)N)C(=O)N(CCCCNC(=N)N)C2=O)cc1` [Compound 8(i), 1,1′-(4,4′-(5,5-bis(4-tert-butylbenzyl)-2,4,6-trioxodihydropyrimidine-1,3(2H,4H)-diyl)bis(butane-4,1-diyl))diguanidine] the EC50 at 1 h was 77 µg/mL (≈ 119 µM).

System: human RBCs
Experiment: Determination of haemolytic activity
Assay type: cell-based
Details: not given
Procedure: as §1

With `CC(C)(C)c1ccc(CC2(Cc3ccc(C(C)(C)C)cc3)C(=O)N(CCCCNC(=N)N)C(=O)N(CCCCNC(=N)N)C2=O)cc1` [Compound 8(i), 1,1′-(4,4′-(5,5-bis(4-tert-butylbenzyl)-2,4,6-trioxodihydropyrimidine-1,3(2H,4H)-diyl)bis(butane-4,1-diyl))diguanidine] the “RBC toxicity compared to the amine 7(i)” value was “twofold increased RBC toxicity”.
